Test results published in patent US10172814B2, “Substituted pyridyl-cycloalkyl-carboxylic acids, compositions containing them and medical uses thereof” (BAYER PHARMA AKTIENGESELLSCHAFT, priority 2014, dated 2019).

Each compound was assayed against human PTGES (Homo sapiens (Human), UniProt O14684) (assay: Human PTGES biochemical enzyme inhibition assay (conversion of PGH2 to PGE2, TR-FRET)). Conditions: Enzymatic conversion of PGH2 to PGE2; read-out: Human PTGES IC50.
Procedure: Human PTGES Biochemical Enzyme Inhibition Assay:
PTGES (Microsomal prostaglandin E synthase 1) is an enzyme that converts prostaglandin H2 (PGH2) to prostaglandin E2 (PGE2) in the presence of reduced glutathione (GSH).
Recombinant proteins (human isoforms) of PTGES containing a FLAG tag, expressed in baculovirus infected insect cells (Hi-5) and purified by affinity chromatography was used as enzyme in the assay. Substrate was prostaglandin H2 (Cayman Chemicals).
4 ul of a solution of human PTGES in assay buffer [100 mM sodium phosphate pH 7.2, 2.5 mM Glutathion reduced, 1 mM EDTA, 0.01% BSA, 0.4 mM DTT, 0.15 mM n-dodecylmaltoside] was added to the well containing test compound and incubated for 15-20 minutes to allow binding of the compound to the enzyme prior to the enzymatic reaction. The reaction was started by addition of 1 ul of an ice cold solution containing PGH2 (40 nM in assay buffer resulting in a final concentration of 8 nM PGH2 in the assay). […] The concentration of each isoform of PTGES was adapted to the activity of the respective enzyme preparation to maintain linear reaction properties within the reaction time. […] The reaction was stopped by addition of 1 ul of a solution containing 15 mM SnCl2 and 400 mM KF in water. SnCl2 converts the remaining unstable PGH2 to stable PGF2alpha. Then, 3 ul of the a first detection solution containing PGE2-D2 (Cisbio Bioassays, TR-FRET reagent, diluted according to the manufacturer's recommendation, typically 1:20 in reconstitution buffer) was added. […] The resulting mix was incubated overnight at 4° C. to allow the formation of a complex of PGE2 and the detection reagents. […] Dilution series were made prior to the assay in a 100 fold concentrated form by serial dilution. IC50 values were calculated by 4-Parameter fitting.

Chain of human PTGES (O14684 whole entry): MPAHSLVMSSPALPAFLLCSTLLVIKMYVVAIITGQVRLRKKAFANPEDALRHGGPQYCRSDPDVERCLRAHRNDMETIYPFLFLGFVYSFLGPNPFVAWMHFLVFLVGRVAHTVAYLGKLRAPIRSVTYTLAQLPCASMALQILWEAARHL

Row | SMILES | IC50 [nM]
1 | CCOc1cncc(-c2ccc(C(C(=O)Nc3cccc(CCC(=O)O)c3C)C3CCCC3)cc2)c1 (racemic) [Example 8, (R/S) 3-[3-({Cyclopentyl[4-(5-ethoxypyridin-3-yl)phenyl]acetyl}amino)-2-methylphenyl]propanoic acid] | 160
2 | Cc1c(CCC(=O)O)cccc1NC(=O)C(c1ccc(-c2cncc(C(C)(C)O)c2)cc1)C1CCCC1 (racemic) [Example 9, (R/S) 3-{3-[(Cyclopentyl{4-[5-(2-hydroxypropan-2-yl)pyridin-3-yl]phenyl}acetyl)amino]-2-methylphenyl}propanoic acid] | 3560
3 | COCc1cncc(-c2ccc(C(C(=O)Nc3cccc(CCC(=O)O)c3C)C3CCCC3)cc2)c1 (racemic) [Example 10, (R/S) 3-{3-[(Cyclopentyl{4-[5-(methoxymethyl)pyridin-3-yl]phenyl}acetyl)amino]-2-methylphenyl}propanoic acid] | 470
4 | COc1cncc(-c2ccc(C(C(=O)Nc3cccc(CCC(=O)O)c3C)C3CCCC3)cc2)c1 (racemic) [Example 11, (R/S) 3-[3-({Cyclopentyl[4-(5-methoxypyridin-3-yl)phenyl]acetyl}amino)-2-methylphenyl]propanoic acid] | 341
5 | CCc1cncc(-c2ccc(C(C(=O)Nc3cccc(CCC(=O)O)c3C)C3CCCC3)cc2)c1 (racemic) [Example 13, (R/S) 3-[3-({Cyclopentyl[4-(5-ethylpyridin-3-yl)phenyl]acetyl}amino)-2-methylphenyl]propanoic acid] | 78.2
6 | Cc1c(CCC(=O)O)cccc1NC(=O)C(c1ccc(-c2cncc(C3CC3)c2)cc1)C1CCCC1 (racemic) [Example 14, (R/S) 3-[3-({Cyclopentyl[4-(5-cyclopropylpyridin-3-yl)phenyl]acetyl}amino)-2-methylphenyl]propanoic acid] | 115
7 | Cc1c(CCC(=O)O)cccc1NC(=O)C(c1ccc(-c2cncc(OC3CCOCC3)c2)cc1)C1CCCC1 (racemic) [Example 15, (R/S) 3-{3-[(Cyclopentyl{4-[5-(tetrahydro-2H-pyran-4-yloxy)pyridin-3-yl]phenyl}acetyl)amino]-2-methylphenyl}propanoic acid] | 114
8 | Cc1c(CCC(=O)O)cccc1NC(=O)C(c1ccc(-c2cncc(Cl)c2)cc1)C1CCCC1 (racemic) [Example 16, (R/S) 3-[3-({[4-(5-Chloropyridin-3-yl)phenyl](cyclopentyl)acetyl}amino)-2-methylphenyl]propanoic acid] | 59.6
9 | COc1ccc(-c2ccc(C(C(=O)Nc3cccc(CCC(=O)O)c3C)C3CCCC3)cc2)cn1 (racemic) [Example 18, (R/S) 3-[3-({Cyclopentyl[4-(6-methoxypyridin-3-yl)-phenyl]acetyl}amino)-2-methylphenyl]propanoic acid] | 236
10 | Cc1c(CCC(=O)O)cccc1NC(=O)C(c1ccc(-c2ccc(F)nc2)cc1)C1CCCC1 (racemic) [Example 19, (R/S) 3-[3-({Cyclopentyl[4-(6-fluoropyridin-3-yl)-phenyl]acetyl}amino)-2-methylphenyl]propanoic acid] | 552
11 | COc1ncccc1-c1ccc(C(C(=O)Nc2cccc(CCC(=O)O)c2C)C2CCCC2)cc1 (racemic) [Example 20, (R/S) 3-[3-({Cyclopentyl[4-(2-methoxypyridin-3-yl)-phenyl]acetyl}amino)-2-methylphenyl]propanoic acid] | 2550
12 | Cc1cncc(-c2ccc(C(C(=O)Nc3cccc(CCC(=O)O)c3C)C3CCCC3)cc2)c1 (racemic) [Example 21, (R/S) 3-[3-({Cyclopentyl[4-(5-methylpyridin-3-yl)-phenyl]acetyl}amino)-2-methylphenyl]propanoic acid] | 161
13 | Cc1c(CCC(=O)O)cccc1NC(=O)C(c1ccc(-c2cccnc2F)cc1)C1CCCC1 (racemic) [Example 23, (R/S) 3-[3-({cyclopentyl[4-(2-fluoro-pyridin-3-yl)-phenyl]-acetyl}amino)-2-methyl-phenyl]propanoic acid] | 5260
